From article PMC8110578, “Phenylethynylbenzyl-modified biguanides inhibit pancreatic cancer tumor growth” (Scientific Reports, 2021)
Where two headings read alike, the source gives them in different places.

Key:
[1] = test system: KP4 cells sub-cutaneous xenografts; experiment: KP4 sub-cutaneous xenografts in nude mice; details: 50 mg/kg/day IP, 5 day/week
From the text: This dose was chosen from previous work on biguanides to treat mice with pancreatic cancer.
Figure 5 Progression of the volume of KP4 cells sub-cutaneous xenografts performed in nude mice over 37 days. […] (B) Body weight of mice seven days after treatment. […] Representative images shown. Scale bar = 100 µm. […] Results are shown in graphics comparing the percentage of cells stained in each category and the intensity of staining. (E,G) Images of the most representative phenotypes for KI67 staining (E) and cleaved caspase 3 (G).
Experimental. All experiments were performed in accordance to the rules of the in vivo ethical committe of University of Montreal (CDEA #17-103). 6-7 weeks old female nude mice (Hsd:Athymic Nude- Foxn1nu, Envigo) were implanted sub-cutaneously with 750.000 KP4 cells in 100μl of a sterile mix of 20% Matrigel (Corning) in saline solution. Tumor volume was determined by using a caliper, following the formula 4/3*Π*(L*W*T) were L represent the length of the tumor, W, the width, and T, the thickness (all measured in millimeter). […] The compounds were dissolved in the vehicle: 45% Propyleneglycol (Sigma-Aldrich) +5% Tween 80 (Sigma-Aldrich) + ddH2O.

[2] = test system: HPNE cells (normal immortalized pancreatic epithelial cells); experiment: Growth assay (crystal violet), HPNE cells; assay type: cell-based, human; details: 3 days treatment, crystal violet retention assay
Description: . The IC50 of most of the synthetic biguanides in HPNE cells was higher than for cancer cells (Supplementary Table S12).
All chemicals were purchased from Aldrich Chemicals in their highest purity and used without further purification. Deuterated dimethylsulfoxide (DMSO-d^6) and deuterated chloroform (CDCl3) were purchased from CDN Isotopes. NMR spectra were recorded on Bruker advance 400 and 100 spectrometers. Coupling constants are given in hertz (Hz) and chemical shifts are given in parts per million (ppm, δ) measured relative to the residual solvent (the multiplicity of the signals are given as s: singlet, d: doublet, t: triplet, and m: multiplet). High-resolution mass spectra (HRMS) were recorded on a TSQ Quantum Ultra (Thermo Scientific) triple quadrupole with accurate mass option instrument (Université de Montréal Mass Spectrometry Facility). MS experiences were performed using an UltrafleXtreme MALDI TOF/TOF mass spectrometer equipped with a SmartBeam II Nd:Yag/355 nm laser operating at 1 kHz and providing a laser focus down to 20 μm in diameter (Bruker Daltonics, Billerica, MA). The data acquisition for MS was performed in positive ion mode using the linear geometry with flexControl 3.4 (Bruker Daltonics, Billerica, MA). Acceleration voltage was set to + 25 kV and all other instrumental parameters (delayed extraction parameters, source voltages, detector gain, laser energy, etc.) were optimized for maximum S/N for the drug compounds. L-α-Phosphatidylcholine was purchased from Avanti Polar Lipids. Transport and depolarization studies as well as absorbance measurements were performed on a Varian Cary Eclipse fluorescence spectrophotometer. The hemolysis assays were performed on a Fluostar Optima plate reader. Single crystals of C18H18F3N5O3S were obtained from chloroform. A suitable crystal was selected and analysed on a Bruker Venture Metaljet diffractometer. Crystal violet retention assay was used for cell growth assays and IC50 were determined using Prism (GraphPad). NAD/NADH quantitation colorimetric kit (#K337-100) from Biovision was used according to manufacturer’s instructions. ECAR (extracellular acidification rate) and OCR of KP4 cells (oxygen consumption rate) were measured on a Seahorse XF-24 (Agilent).
Experimental. KP4 (Riken RCB1005) and PSN1 (ATCC: CRM-CRL-3211), were cultured in Dulbecco's modified Eagle's medium (DMEM) (Wisent, St-Bruno, QC) supplemented with 10 % of fetal bovine serum (FBS) (Wisent). HPNE hTERT (ATCC: CRL1423) were cultured in a mix of 75% DMEM without glucose (Sigma Cat#. D-5030) with additional 2 mM L-glutamine and 1.5 g/L sodium bicarbonate, 25% Medium M3 Base (Incell Corp. Cat# M300F- 500), fetal bovine serum 5% (wisent 10 ng/ml human recombinant EGF (Sigma-Aldrich), 5.5 mM D-glucose (Sigma-Aldrich), 750 ng/ml puromycin (Sigma-Aldrich). For dose-response assays, cells were seeded in 96 well plates (company). After 24 h, treatments were applied and cells were grown for 3 more days. Crystal violet retention assay used for cell growth assays were described previously^2. The data is expressed as relative absorbance of crystal violet extracted from the cells and diluted in 10 % acetic acid. IC50 were determined using Prism (GraphPad). Tumor spheres were grew according to Ferbeyre et al^3.

HPNE-hTERT cells = experiment: Cell death assay (trypan blue), HPNE-hTERT cells; assay type: cell-based, human; details: 15 µM for 24 h
From the text: Figure 3 Effects of biguanides on cell proliferation and viability in pancreatic cancer cells. […]. […] | decimal sign comma or point
Experimental. […] At the end of the treatments, adherent cells were recovered by trypsinization, along with floating cells recovered by centrifugation of the culture medium. Floating and adherent cells were pooled together. The faction of dead cells was quantified by counting the proportion of trypan blue-positive (dead cells) and the proportion of living cells (trypan blue-negative).

KP4 tumor sections = experiment: KI67 and cleaved caspase 3 staining of tumor sections from treated mice; assay type: in vivo, nude mice; details: 50 mg/kg, tumor sections after treatment
From the text: (B) Body weight of mice seven days after treatment. […] Representative images shown. Scale bar = 100 µm.
To assess the mechanism of the antitumor activity, we stained tumor sections obtained from animals after the treatment protocol for proliferation marker KI67 and apoptosis marker cleaved caspase 3, and quantified the data according to the scoring key in Fig. 5C. […] However, there were no significant differences in staining for cleaved caspase 3 […].

[3] = Octanol/water partition (logP) of compound 1b; assay type: physicochemical; details: for logP at 24 h: octanol/water
Description: Experimental. A 10 µM or 20 µM solution of 1b was prepared in 5 ml of octanol and mixed with 5 ml distilled water at 25°C The solution was stirred and was left to settle for 24 hours before the absorbance of the octanol fraction was measured. The values obtained were fitted on a calibration curve prepared by measuring the absorbance of 1b in octanol at various concentrations (2.5, 10, 15, 20 and 30 µM). The logP was calculated using the following formula: […]
Where [1b]oct is the concentration of 1b in octanol and [1b]water is the concentration of 1b in water.

cancer cells = details: cited from earlier work

| SMILES | Effect on body weight [1] | Tolerability in vivo [1] | Effect on tumor volume ([1]; from day 11 post engraftment, 37 days) | IC50 [2] [µM] | Effect on the fraction of dead HPNE cells (HPNE-hTERT cells) | KI67 staining in tumors (KP4 tumor sections) | [1b] in octanol ([3]; Partition 1 (10 µM)) [µM] | [1b] in water ([3]; Partition 1 (10 µM)) [µM] | [1b] in octanol ([3]; Partition 2 (20 µM)) [µM] | [1b] in water ([3]; Partition 2 (20 µM)) [µM] | logP at 24 h ([3]; Partition 1 (10 µM), 25°C, 24 hours, read-out: logP) | logP at 24 h ([3]; Partition 2 (20 µM), 25°C, 24 hours, read-out: logP) | logP at 24 h ([3]; logP (mean of partitions 1 and 2), 25°C, spread ± 0.10 in its own column) | logP at 24 h ([3]; read-out: logP) | Reported antiproliferative concentration in vitro (cancer cells) [mM] |
| --- | --- | --- | --- | --- | --- | --- | --- | --- | --- | --- | --- | --- | --- | --- | --- |
| N=C(N)NC(=N)NCc1ccc(C#Cc2ccccc2)cc1 [1b, 4-(phenylethynyl)benzylbiguanide] | did not affect body weight | well tolerated | significantly reduced tumor volume | 80.9 | did not increase the fraction of dead cells | reduced KI67 staining in tumors | 6.91 | 3.09 | 15.15 | 4.85 | 0.35 | 0.5 | 0.42 | 0.4 | – |
| CN(C)C(=N)NC(=N)N [metformin, 1,1-dimethylbiguanide, reference compound] | – | – | – | – | – | – | – | – | – | – | – | – | – | – | 5 |
